# Activity calls are given as the source filed them. No cut-off for these calls is given here.
# What was measured:
# Candida albicans [1] = assay: Antifungal activity against Candida albicans 90028 assessed as fungal growth inhibition at 16 ug/ml measured after 18 hrs by microdilution method relative to control; format: functional; conditions: read-out: GI
# Candida albicans [2] = assay: Antifungal activity against Candida albicans 90028 assessed as fungal growth inhibition at 8 ug/ml measured after 18 hrs by microdilution method relative to control; format: functional; conditions: read-out: GI
# Candida albicans [3] = assay: Antifungal activity against Candida albicans 90028 assessed as fungal growth inhibition at 4 ug/ml measured after 18 hrs by microdilution method relative to control; format: functional; conditions: read-out: GI
# Candida albicans [4] = assay: Antifungal activity against Candida albicans 90028 assessed as fungal growth inhibition at 2 ug/ml measured after 18 hrs by microdilution method relative to control; format: functional; conditions: read-out: GI
# Candida albicans [5] = assay: Antifungal activity against Candida albicans 90028 assessed as fungal growth inhibition at 1 ug/ml measured after 18 hrs by microdilution method relative to control; format: functional; conditions: read-out: GI
# Candida albicans [6] = assay: Antifungal activity against Candida albicans 90028 assessed as fungal growth inhibition at 0.5 ug/ml measured after 18 hrs by microdilution method relative to control; format: functional; conditions: read-out: GI
# Candida albicans [7] = assay: Antifungal activity against Candida albicans 90028 assessed as fungal growth inhibition at 0.25 ug/ml measured after 18 hrs by microdilution method relative to control; format: functional; conditions: read-out: GI
# Candida albicans [8] = assay: Antifungal activity against Candida albicans 90028 assessed as fungal growth inhibition at 0.125 ug/ml measured after 18 hrs by microdilution method relative to control; format: functional; conditions: read-out: GI
# Candida albicans [9] = assay: Antifungal activity against Candida albicans 90028 assessed as fungal growth inhibition at 0.0625 ug/ml measured after 18 hrs by microdilution method relative to control; format: functional; conditions: read-out: GI
# Candida albicans [10] = assay: Antifungal activity against Candida albicans 90028 assessed as fungal growth inhibition at 0.0313 ug/ml measured after 18 hrs by microdilution method relative to control; format: functional; conditions: read-out: GI
# Candida albicans [11] = assay: Antifungal activity against Candida albicans 90028 assessed as fungal growth inhibition at 16 ug/ml measured after 48 hrs by microdilution method relative to control; format: functional; conditions: read-out: GI
# Candida albicans [12] = assay: Antifungal activity against Candida albicans 90028 assessed as fungal growth inhibition at 8 ug/ml measured after 48 hrs by microdilution method relative to control; format: functional; conditions: read-out: GI
# Candida albicans [13] = assay: Antifungal activity against Candida albicans 90028 assessed as fungal growth inhibition at 4 ug/ml measured after 48 hrs by microdilution method relative to control; format: functional; conditions: read-out: GI
# Candida albicans [14] = assay: Antifungal activity against Candida albicans 90028 assessed as fungal growth inhibition at 2 ug/ml measured after 48 hrs by microdilution method relative to control; format: functional; conditions: read-out: GI
# Candida albicans [15] = assay: Antifungal activity against Candida albicans 90028 assessed as fungal growth inhibition at 1 ug/ml measured after 48 hrs by microdilution method relative to control; format: functional; conditions: read-out: GI
# Candida albicans [16] = assay: Antifungal activity against Candida albicans 90028 assessed as fungal growth inhibition at 0.5 ug/ml measured after 48 hrs by microdilution method relative to control; format: functional; conditions: read-out: GI
# Candida albicans [17] = assay: Antifungal activity against Candida albicans 90028 assessed as fungal growth inhibition at 0.25 ug/ml measured after 48 hrs by microdilution method relative to control; format: functional; conditions: read-out: GI
# Candida albicans [18] = assay: Antifungal activity against Candida albicans 90028 assessed as fungal growth inhibition at 0.125 ug/ml measured after 48 hrs by microdilution method relative to control; format: functional; conditions: read-out: GI
# Candida albicans [19] = assay: Antifungal activity against Candida albicans 90028 assessed as fungal growth inhibition at 0.0625 ug/ml measured after 48 hrs by microdilution method relative to control; format: functional; conditions: read-out: GI
# Candida albicans [20] = assay: Antifungal activity against Candida albicans 90028 assessed as fungal growth inhibition at 0.0313 ug/ml measured after 48 hrs by microdilution method relative to control; format: functional; conditions: read-out: GI
# Candida albicans [21] = assay: Antifungal activity against Candida albicans 90028 assessed as fungal growth inhibition measured after 48 hrs by microdilution method; format: functional
# Candida albicans [22] = assay: Fungicidal activity against Candida albicans 90028 preincubated for 48 hrs followed by plating on SD agar and measured after 48 hrs; format: functional; conditions: time 96 hrs
# Vero = assay: Cytotoxicity against African green monkey Vero cells at 0.25 to 512 ug/ml by XTT assay relative to control; format: cell-based; conditions: chlorocebus sabaeus, at 0.25 to 512 µg/mL, dose 0.25-512 µg/ml
# [23] = Cytotoxicity against human MRC5 cells by CellTiter 96 Aqueous One Solution Reagent based assay; format: cell-based
# [24] = Toxicity in Galleria mellonella larvae assessed as survival at 16 ug/ml relative to control; conditions: at 16 µg/mL
# Candida albicans [25] = assay: Antifungal activity against Candida albicans 90028 infected in Galleria mellonella larvae at 16 ug/ml by H and E staining based histological analysis; format: functional, organism-based; conditions: dose 16.0 µg/ml
# Candida albicans [26] = assay: Induction of plasma membrane disruption in Candida albicans assessed as accidental type cell death at 0.25 ug/ml measured after 18 hrs by Annexin V-FITC/propidium iodide staining based flow cytometry (reference value: 1.74 +/- 1.37%); conditions: dose 0.25 µg/ml
# Candida albicans [27] = assay: Anti-adhesive activity against Candida albicans assessed as reduction in […] adhesion to human TR146 cells at 0.25 ug/ml incubated for 2 hrs prior to cell infection and measured after 2 hrs by colony counting method relative to control; format: functional; parameters: scale not given: the % may be the effect or the level left; conditions: dose 0.25 µg/ml; time 4 hrs
# [28] = Induction of adhesive activity against Candida albicans assessed as increase in […] adhesion to human TR146 cells at 0.125 ug/ml incubated for 2 hrs prior to cell infection and measured after 2 hrs by colony counting method relative to control; format: cell-based; conditions: tr146, 2 h, dose 0.125 µg/ml
# Candida albicans [29] = assay: Antibiofilm activity against Candida albicans 90028 assessed as cell killing at 256 ug/ml by XTT assay relative to control; format: functional; conditions: dose 256 µg/ml
# Candida albicans [30] = assay: Antibiofilm activity against Candida albicans 90028 assessed as increasing in cell killing by XTT assay; format: functional
structure (smiles),measurement,setting,value
NNc1ccc(S(=O)(=O)C(F)(F)Cl)cc1[N+](=O)[O-],inhibition of growth at 16 µg/mL,Candida albicans [1],100%
same,inhibition of growth at 8 µg/mL,Candida albicans [2],100%
same,inhibition of growth at 4 µg/mL,Candida albicans [3],100%
same,inhibition of growth at 2 µg/mL,Candida albicans [4],100%
same,inhibition of growth at 1 µg/mL,Candida albicans [5],99.9%
same,inhibition of growth at 0.5 µg/mL,Candida albicans [6],99.9%
same,inhibition of growth at 0.25 µg/mL,Candida albicans [7],98.8%
same,inhibition of growth at 0.125 µg/mL,Candida albicans [8],98.4%
same,inhibition of growth at 0.0625 µg/mL,Candida albicans [9],97.6%
same,inhibition of growth at 0.0313 µg/mL,Candida albicans [10],93.8%
same,inhibition of growth at 16 µg/mL,Candida albicans [11],100%
same,inhibition of growth at 8 µg/mL,Candida albicans [12],100%
same,inhibition of growth at 4 µg/mL,Candida albicans [13],100%
same,inhibition of growth at 2 µg/mL,Candida albicans [14],99.7%
same,inhibition of growth at 1 µg/mL,Candida albicans [15],98.2%
same,inhibition of growth at 0.5 µg/mL,Candida albicans [16],98.9%
same,inhibition of growth at 0.25 µg/mL,Candida albicans [17],98.4%
same,inhibition of growth at 0.125 µg/mL,Candida albicans [18],98.1%
same,inhibition of growth at 0.0625 µg/mL,Candida albicans [19],95.8%
same,inhibition of growth at 0.0313 µg/mL,Candida albicans [20],94.2%
same,MIC,Candida albicans [21],inactive
same,MFC,Candida albicans [22],0.25 µg/mL
same,Activity,Vero,93.43%
same,CC50,[23],≥ 16 µg/mL
same,survival,[24],93%
same,Activity,Candida albicans [25],inactive
same,Activity,Candida albicans [26],83.1%
same,Activity,Candida albicans [27],5.88%
same,fold change (FC),[28],11.76
same,Activity,Candida albicans [29],40%
same,CC50,Candida albicans [30],≤ 128 µg/mL

# — ChEMBL document CHEMBL4680208, “Sulfone derivatives enter the cytoplasm of Candida albicans sessile cells” (Eur J Med Chem, 2020)
